Experiments:
rejection of skin graft = conditions: dogs; cited from earlier work
T-cells = assay: HTBA-1 T-cell cytotoxicity in the presence of 2'-deoxyguanosine; assay type: cell-based
B-cell = assay: HTBA-1 B-cell toxicity in the presence of 2'-deoxyguanosine; assay type: cell-based; conditions: in the presence of the same amount of 2'-deoxyguanosine
[1] = molecular target: T1, purine nucleoside phosphorylase (PNP-4) (Homo sapiens, UniProt P00491); assay: PNP-4 enzyme assay, radiochemical, formation of [14C]hypoxanthine from [14C]inosine; assay type: biochemical; conditions: human erythrocyte enzyme
T1 construct: using human erythrocyte as the enzyme source; from tissue; host or cells: human erythrocyte
T1 sequence (P00491 1-289): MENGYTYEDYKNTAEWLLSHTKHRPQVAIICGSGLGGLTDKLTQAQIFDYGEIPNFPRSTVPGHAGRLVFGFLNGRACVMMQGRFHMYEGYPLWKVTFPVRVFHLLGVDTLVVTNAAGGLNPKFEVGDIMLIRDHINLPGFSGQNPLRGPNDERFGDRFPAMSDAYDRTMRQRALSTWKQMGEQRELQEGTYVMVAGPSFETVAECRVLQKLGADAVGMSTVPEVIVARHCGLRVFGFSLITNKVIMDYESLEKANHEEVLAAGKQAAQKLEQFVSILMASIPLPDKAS
Procedure: In the purine nucleoside phosphorylase (PNP-4) enzyme assay, an IC50 is achieved at a dose of 1.0 micromoles on a selected compound of the present invention. PNP-4 activity for the compound of formula I is measured radiochemically by measuring the formation of [^14 --C]hypoxanthine from [^14 --C]inosine [Biomedicine, 33, 39 (1980)] using human erythrocyte as the enzyme source.

Row | SMILES | inhibiting rejection of skin graft (rejection of skin graft) | IC50 (T-cells; T-cell, + 10 μM 2'-deoxyguanosine, read-out: HTBA-1 T-Cell + 10 μM 2'-d Gua, IC50) [µM] | selective cytotoxicity for T-cells (T-cells; in the presence of 2'-deoxyguanosine, at a similar concentration range) | toxicity to B-cell (B-cell) | IC50 [1] [µM]
1 | Nc1nc2c(nc(N)n2[C@@H]2O[C@H](CO)[C@@H](O)[C@H]2O)c(=O)[nH]1 [8-Aminoguanosine] | efficacious for inhibiting rejection of skin graft in dogs | – | – | – | –
2 | Nc1nc2c(ccn2Cc2cccs2)c(=O)[nH]1 [Example 2, 2-Amino-7-(2-thienylmethyl)-4-pyrrolo[2,3-d]pyrimidone] | – | 2.3 | selectively cytotoxic for T-cells | nontoxic to B-cell | 1
